In PubChem BioAssay AID248 (DTP/NCI, 2004):
Values joined by “and” are separate entries in the source; they are usually repeats but may differ in a detail not shown here. Equal values may be shown once. Inconclusive results and toxic doses are left out. No stated cut-off is given here; in the data, active means T/C of 150% or more; inactive means T/C below 125%.

System: L1210 leukemia ip in BDF1 mice, survival T/C
Experiment: NCI In Vivo Anticancer Drug Screen. Data for tumor model L1210 Leukemia (intraperitoneal) in B6D2F1 (BDF1) mice
Conditions: endpoint: mean survival time, higher = longer survival
Method in brief: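 Transplanted-tumor mice were given test agent; controls received vehicle only. Survival readings from the two groups were divided (treated over control).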

[1] = dose: 100.0 mg/kg/injection, schedule: Q01DX001 (ip), vehicle: saline with Tween-80
[2] = dose: 100.0 mg/kg/injection, schedule: Q04DX003 (ip), vehicle: saline with Tween-80
[3] = dose: 200.0 mg/kg/injection, schedule: Q04DX003 (ip), vehicle: saline with Tween-80
[4] = dose: 400.0 mg/kg/injection, schedule: Q04DX003 (ip), vehicle: saline with Tween-80
[5] = dose: 100.0 mg/kg/injection, schedule: Q04DX003 (ip), vehicle: Klucel (hydroxypropylcellulose) (HPC)
[6] = dose: 200.0 mg/kg/injection, schedule: Q04DX003 (ip), vehicle: Klucel (hydroxypropylcellulose) (HPC)
[7] = dose: 100.0 mg/kg/injection, schedule: Q01DX009 (ip), vehicle: saline with Tween-80
[8] = dose: 200.0 mg/kg/injection, schedule: Q01DX009 (ip), vehicle: saline with Tween-80
[9] = dose: 400.0 mg/kg/injection, schedule: Q01DX009 (ip), vehicle: saline with Tween-80
[10] = dose: 6.25 mg/kg/injection, schedule: Q04DX003 (ip), vehicle: saline
[11] = dose: 12.5 mg/kg/injection, schedule: Q04DX003 (ip), vehicle: saline
[12] = dose: 25.0 mg/kg/injection, schedule: Q04DX003 (ip), vehicle: saline
[13] = dose: 100.0 mg/kg/injection, schedule: Q01DX009 (ip), vehicle: Klucel (hydroxypropylcellulose) (HPC)
[14] = dose: 200.0 mg/kg/injection, schedule: Q01DX009 (ip), vehicle: Klucel (hydroxypropylcellulose) (HPC)
[15] = dose: 75.0 mg/kg/injection, schedule: Q01DX001 (ip), vehicle: carboxymethylcellulose (CMC)
[16] = dose: 150.0 mg/kg/injection, schedule: Q01DX001 (ip), vehicle: carboxymethylcellulose (CMC)
[17] = dose: 300.0 mg/kg/injection, schedule: Q01DX001 (ip), vehicle: carboxymethylcellulose (CMC)

Measured: T/C

NCc1ccc(OCc2nc(N)nc(N)c2-c2ccc(Cl)cc2)cc1
inactive: dose: 25.0 mg/kg/injection, schedule: Q01DX001 (ip), vehicle: saline with Tween-80 97 % of control | dose: 50.0 mg/kg/injection, schedule: Q01DX001 (ip), vehicle: saline with Tween-80 87 % of control | [1] 95 % of control and 96 % of control

CCN(C(=O)c1ccc(C(=O)N(CC)c2ccccc2)cc1)c1ccccc1
inactive: [2] 96 % of control | [3] 91 % of control | [4] 91 % of control

Cc1cccc(-c2nc3cc(Cl)ccc3c(=O)o2)c1
inactive: [5] 97 % of control | [6] 90 % of control

CCCCCCCCCCCCCCCCNS(=O)(=O)c1ccc(N2CCOCC2)c(N)c1
inactive: [5] 93 % of control | [6] 98 % of control | dose: 400.0 mg/kg/injection, schedule: Q04DX003 (ip), vehicle: Klucel (hydroxypropylcellulose) (HPC) 94 % of control

O=C(Nc1ccc(CCO)cc1)Nc1ccccc1C(F)(F)F
inactive: [7] 97 % of control | [8] 90 % of control | [9] 92 % of control

CC(CO)CCC(=O)C(C)C1C(=O)CC2CC3CC(O)CCC3(C)CC21C (stereo unspecified)
inactive: dose: 100.0 mg/kg/injection, schedule: Q01DX001 (ip), vehicle: Klucel (hydroxypropylcellulose) (HPC) 98 % of control | dose: 200.0 mg/kg/injection, schedule: Q01DX001 (ip), vehicle: Klucel (hydroxypropylcellulose) (HPC) 105 % of control | dose: 400.0 mg/kg/injection, schedule: Q01DX001 (ip), vehicle: Klucel (hydroxypropylcellulose) (HPC) 119 % of control

Cc1ccc(N2CCNCC2)cc1
inactive: [10] 91 % of control | [11] 93 % of control | [12] 103 % of control

Cc1ccc(C(=O)/C=C/c2ccccc2O)cc1
inactive: [7] 100 % of control | [2] 105 % of control | [8] 98 % of control | [3] 100 % of control | [9] 94 % of control | [4] 98 % of control

COc1ccc(N2C(=O)CCC2=O)cc1
inactive: [7] 107 % of control | [2] 106 % of control | [8] 95 % of control | [3] 92 % of control | [9] 98 % of control | [4] 111 % of control

C/C(=N\Nc1ccccc1)C(C)C
inactive: dose: 75.0 mg/kg/injection, schedule: Q04DX003 (ip), vehicle: Klucel (hydroxypropylcellulose) (HPC) 118 % of control | dose: 150.0 mg/kg/injection, schedule: Q04DX003 (ip), vehicle: Klucel (hydroxypropylcellulose) (HPC) 94 % of control | dose: 300.0 mg/kg/injection, schedule: Q04DX003 (ip), vehicle: Klucel (hydroxypropylcellulose) (HPC) 96 % of control

O=c1ccn(Cc2cccc(OCCCc3ccccc3)c2)c(=O)[nH]1
inactive: [13] 96 % of control | [14] 102 % of control | dose: 400.0 mg/kg/injection, schedule: Q01DX009 (ip), vehicle: Klucel (hydroxypropylcellulose) (HPC) 97 % of control

CN(C)Cc1ccccc1COC(=O)c1ccc(Br)cc1
inactive: dose: 50.0 mg/kg/injection, schedule: Q04DX002 (ip), vehicle: Klucel (hydroxypropylcellulose) (HPC) 98 % of control | dose: 100.0 mg/kg/injection, schedule: Q04DX002 (ip), vehicle: Klucel (hydroxypropylcellulose) (HPC) 105 % of control | dose: 200.0 mg/kg/injection, schedule: Q04DX002 (ip), vehicle: Klucel (hydroxypropylcellulose) (HPC) 94 % of control

COC1CCC2(C)C3CCC4C(=CCC5C(C)(C)C(=O)CCC45C)CC3(C)CCC2C1(C)C (stereo unspecified)
inactive: [15] 105 % of control | [16] 110 % of control | [17] 104 % of control

Cc1cccc(C(C)(C)C)c1O
inactive: [2] 102 % of control | [3] 91 % of control | [4] 94 % of control

CCN(CC)CCCC(Nc1c2ccc(Cl)cc2nc2ccc(OC)cc12)c1ccc(F)cc1 (stereo unspecified)
inactive: dose: 9.0 mg/kg/injection, schedule: Q01DX Z (ip), vehicle: methylcellulose (MC) 86 % of control | dose: 15.0 mg/kg/injection, schedule: Q01DX Z (ip), vehicle: methylcellulose (MC) 95 % of control | dose: 20.0 mg/kg/injection, schedule: Q01DX Z (ip), vehicle: methylcellulose (MC) 86 % of control | dose: 30.0 mg/kg/injection, schedule: Q01DX Z (ip), vehicle: methylcellulose (MC) 89 % of control

O=C(Sc1cccc(Br)c1)c1ccccc1
inactive: dose: 100.0 mg/kg/injection, schedule: Q01DX001 (ip), vehicle: other 100 % of control | dose: 200.0 mg/kg/injection, schedule: Q01DX001 (ip), vehicle: other 95 % of control | dose: 400.0 mg/kg/injection, schedule: Q01DX001 (ip), vehicle: other 94 % of control

CSc1ncnc2c1C[P+](Cc1ccccc1)(c1ccccc1)CC2 (stereo unspecified)
inactive: dose: 100.0 mg/kg/injection, schedule: Q04DX002 (ip), vehicle: saline with Tween-80 103 % of control

O=C1C=CC(=O)N1c1ccc(Cc2ccc(N3C(=O)C=CC3=O)cc2)cc1
inactive: dose: 26.6 mg/kg/injection, schedule: Q01DX Z (ip), vehicle: methylcellulose (MC) 90 % of control | dose: 40.0 mg/kg/injection, schedule: Q01DX Z (ip), vehicle: methylcellulose (MC) 95 % of control

NC(CO)Cc1ccccc1 (stereo unspecified)
inactive: dose: 6.25 mg/kg/injection, schedule: Q01DX009 (ip), vehicle: saline 107 % of control | [10] 100 % of control | dose: 12.5 mg/kg/injection, schedule: Q01DX009 (ip), vehicle: saline 96 % of control | [11] 93 % of control | dose: 25.0 mg/kg/injection, schedule: Q01DX009 (ip), vehicle: saline 102 % of control | [12] 105 % of control | dose: 35.0 mg/kg/injection, schedule: Q01DX009 (ip), vehicle: saline 88 % of control | dose: 55.0 mg/kg/injection, schedule: Q01DX009 (ip), vehicle: saline 98 % of control | [15] 86 % of control | dose: 80.0 mg/kg/injection, schedule: Q01DX009 (ip), vehicle: saline 96 % of control and 98 % of control | dose: 120.0 mg/kg/injection, schedule: Q01DX009 (ip), vehicle: saline 103 % of control | [16] 91 % of control | dose: 180.0 mg/kg/injection, schedule: Q01DX009 (ip), vehicle: saline 121 % of control | [17] 88 % of control

NNc1c2ccccc2nc2ccccc12
inactive: dose: 0.5 mg/kg/injection, schedule: Q04DX003 (ip), vehicle: Klucel (hydroxypropylcellulose) (HPC) 103 % of control | dose: 1.0 mg/kg/injection, schedule: Q04DX003 (ip), vehicle: Klucel (hydroxypropylcellulose) (HPC) 100 % of control | dose: 2.0 mg/kg/injection, schedule: Q04DX003 (ip), vehicle: Klucel (hydroxypropylcellulose) (HPC) 95 % of control

O=C1C2CC=CCC2C(=O)N1SC(Cl)(Cl)Cl (stereo unspecified)
inactive: dose: 0.78 mg/kg/injection, schedule: Q01DX009 (ip), vehicle: saline with Tween-80 107 % of control | dose: 1.56 mg/kg/injection, schedule: Q01DX009 (ip), vehicle: saline with Tween-80 104 % of control | dose: 3.12 mg/kg/injection, schedule: Q01DX009 (ip), vehicle: saline with Tween-80 103 % of control | dose: 6.25 mg/kg/injection, schedule: Q01DX009 (ip), vehicle: saline with Tween-80 103 % of control | dose: 12.5 mg/kg/injection, schedule: Q01DX009 (ip), vehicle: saline with Tween-80 97 % of control | dose: 25.0 mg/kg/injection, schedule: Q01DX009 (ip), vehicle: saline with Tween-80 98 % of control

CC(=O)c1cc2ccccc2o1
inactive: dose: 6.25 mg/kg/injection, schedule: Q04DX003 (ip), vehicle: water 103 % of control | dose: 12.5 mg/kg/injection, schedule: Q04DX003 (ip), vehicle: water 109 % of control | dose: 50.0 mg/kg/injection, schedule: Q01DX009 (ip), vehicle: Klucel (hydroxypropylcellulose) (HPC) 92 % of control | dose: 50.0 mg/kg/injection, schedule: Q04DX003 (ip), vehicle: water 108 % of control | [13] 90 % of control | dose: 100.0 mg/kg/injection, schedule: Q04DX003 (ip), vehicle: water 112 % of control | [14] 95 % of control | dose: 200.0 mg/kg/injection, schedule: Q04DX003 (ip), vehicle: water 123 % of control

c1ccc(-c2nnnn2-c2ccccc2)cc1
inactive: [1] 102 % of control | dose: 200.0 mg/kg/injection, schedule: Q01DX001 (ip), vehicle: saline with Tween-80 98 % of control | dose: 400.0 mg/kg/injection, schedule: Q01DX001 (ip), vehicle: saline with Tween-80 105 % of control
